{
  "source": "patent US20190083462A1",
  "about": "“PREVENTION OF NSAID ENTEROPATHY WITH MICROBIOTA-DERIVED TRYPTOPHAN-METABOLITE” (THE TEXAS A&M UNIVERSITY SYSTEM, priority 2016, published 2019)",
  "key": {"[1]": {"system": "small intestinal mucosa", "assay": "RNA sequencing (RNA-Seq) of the distal small intestinal mucosa", "assay_type": "in vivo, mice", "description": "Eight- to 10-week-old specific-pathogen-free C57BL/6J mice were purchased and allowed to acclimate for 2 weeks. Mice were fed standardized laboratory rodent diet and sterile water ad libitum. Mice were randomly divided into the following 4 groups (n=5 mice/group): 1) NSAID (indomethacin); 2) indole; 3) NSAID+indole; and, 4) untreated controls. Mice were then rehoused on the basis of treatment group assignment, with 5 animals/group-cage. To induce NSAID enteropathy, mice in group 1 were gavaged once daily with indomethacin (5 mg/kg; for 7 days; Sigma Aldrich, St. Louis, Mo.) dissolved in dimethylysulfoxide (DMSO) (Sigma Aldrich, St. Louis, Mo.) and further diluted in phosphate buffered saline (PBS). Mice in group 2 received indole by gavage (20 mg/kg; once daily for 7 days; Sigma Aldrich, St. Louis, Mo.) dissolved in sterile water warmed to 55° C. Mice in group 3 received indole co-administered with indomethacin by gavage at the dosages described above. All mice were gavaged with equal volumes (200 μL) and equal concentrations of DMSO (0.001%).\nFeces were collected daily by placing individual animals in sterile plastic cups that were RNase- and DNase-free until they passed feces. The mice were immediately returned to their home cages and the feces immediately flash frozen at −80° C. […]\nRNA was extracted from the mucosal scrapings using an RNeasy mini kit (QIAGEN, Redwood City, Calif.) following the manufacturer's instructions and including on-column DNase treatment. RNA quantity was determined using a Nanodrop spectrophotometer (Fisher Thermoscientific) and the quality was assessed using the Nano6000 chip on a Bioanalyzer 2100(Agilent Technologies). […] Differentially expressed genes were determined using EdgeR based on the matrix of gene counts (Robinson M D, McCarthy D J, Smyth G K. edgeR: a Bioconductor package for differential expression analysis of digital gene expression data. Bioinformatics (Oxford, England) 2010; 26:139-40). Gene lists were analyzed through use of QIAGEN's Ingenuity® Pathway Analysis (IPA, QIAGEN, Redwood City, Calif. http://www.qiagen.com/ingenuity). […]"}, "[2]": {"system": "C57BL/6J mice", "assay": "Histology and small intestinal morphometric measurements", "assay_type": "in vivo", "quoted_text": "Eight- to 10-week-old specific-pathogen-free C57BL/6J mice were purchased and allowed to acclimate for 2 weeks. Mice were fed standardized laboratory rodent diet and sterile water ad libitum. […] Mice were then rehoused on the basis of treatment group assignment, with 5 animals/group-cage. To induce NSAID enteropathy, mice in group 1 were gavaged once daily with indomethacin (5 mg/kg; for 7 days; Sigma Aldrich, St. Louis, Mo.) dissolved in dimethylysulfoxide (DMSO) (Sigma Aldrich, St. Louis, Mo.) and further diluted in phosphate buffered saline (PBS). […] All mice were gavaged with equal volumes (200 μL) and equal concentrations of DMSO (0.001%).\nFeces were collected daily by placing individual animals in sterile plastic cups that were RNase- and DNase-free until they passed feces. The mice were immediately returned to their home cages and the feces immediately flash frozen at −80° C. All animals were euthanized via CO2 asphyxiation on day 8 (i.e., after 7 days of treatment). The small intestine was harvested, opened longitudinally, rinsed with ice-cold PBS, and the distal ⅓ of the intestinal mucosa was scraped for tissue gene expression analysis. The remaining small intestine was fixed in 4% paraformaldehyde, Swiss-rolled, paraffin-embedded, and stained with hematoxylin and eosin.\nThe slides were scored as previously described for intestinal inflammation (Jia Q, Lupton J R, Smith R, Weeks B R, Callaway E, Davidson L A, Kim W, Fan Y Y, Yang P, Newman R A, et al. Reduced colitis-associated colon cancer in Fat-1 (n-3 fatty acid desaturase) transgenic mice. Cancer Research 2008; 68:3985-91). Briefly, mucosal injury was determined by the following parameters scored from 0 (no evidence) to 3 (marked): mucosal ulceration, mucosal erosion, and presence of squamified epithelium. Inflammatory changes were scored similarly based on the following parameters: lymphocytic infiltration, plasma cell infiltration, and neutrophilic infiltration. Finally, an overall evidence of injury score was used to document total injury graded from 0 (none) to 4 (marked). Morphological parameters were obtained from digitally scanned slides using SPOT vr 5.0 software. Three sets of measurements from 3 separate sections were recorded for each animal by an observer blinded to treatment group. Measurements consisted of villus height, crypt depth, and submucosal mural thickness."}},
  "data": [
    {"smiles": "COc1ccc2c(c1)c(CC(=O)O)c(C)n2C(=O)c1ccc(Cl)cc1", "note": "[NSAID, indomethacin]", "values": [
      {"measurement": "NF-κB signaling pathway activation", "setting": "[1]; RNA-Seq pathway analysis of mucosal scrapings", "result": "activated"},
      {"measurement": "transcription of pro-inflammatory cytokines (IL-1α, IL-1β, TNF, IL-6) and chemokines (CXCL1, CXCL3, CXCL2, CXCL5, CCL2, CCL7)", "setting": "[1]; small intestinal mucosal transcriptome after 7 days, vs control mice", "result": "significantly up-regulated"},
      {"measurement": "microscopic pathology scores", "setting": "[2]; Swiss-rolled H & E stained small intestinal sections, n=5/group", "result": "significant difference from control"},
      {"measurement": "effect on the large intestine", "setting": "[2]; data not shown", "result": "negligible effect"},
      {"measurement": "ratio of villus height to crypt depth", "setting": "[2]; small intestinal mucosa", "result": "significantly decreased"}
    ]}
  ]
}
